Here are results for one compound from US8337835B2, “Use of an endogenous ligand for peroxisome proliferator activated receptor alpha to treat liver disorders” (priority 2009, dated 2012).

This assay has as its target T1, ΔDBD-PPARα (Mus musculus, UniProt P23204, C119A/C122A).
T1 construct: expressed in transfected cells; host or cells: liver of chow-fed WT mice on a PPARα null background, infected with AdFLAG-ΔDBD PPARα adenovirus
T1 sequence (P23204 1-468 C119A/C122A): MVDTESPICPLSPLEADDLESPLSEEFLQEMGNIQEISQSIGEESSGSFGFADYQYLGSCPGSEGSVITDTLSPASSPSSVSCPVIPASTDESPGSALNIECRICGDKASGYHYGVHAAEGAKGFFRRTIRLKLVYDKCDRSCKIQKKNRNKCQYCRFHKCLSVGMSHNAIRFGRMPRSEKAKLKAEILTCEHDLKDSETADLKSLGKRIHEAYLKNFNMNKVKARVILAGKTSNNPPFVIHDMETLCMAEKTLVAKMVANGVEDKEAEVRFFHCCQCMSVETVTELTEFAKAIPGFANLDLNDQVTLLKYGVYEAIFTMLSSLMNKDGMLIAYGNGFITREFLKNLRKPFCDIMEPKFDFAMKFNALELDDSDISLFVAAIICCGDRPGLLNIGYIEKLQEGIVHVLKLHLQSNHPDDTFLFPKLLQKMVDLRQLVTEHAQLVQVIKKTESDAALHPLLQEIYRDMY
The assay can be described thus: In vivo competitive inhibition with PPARα having a defective DNA binding domain. Conditions: 50 μg/g intraperitoneal; chow fed WT mice on PPARα null background with AdFLAG-ΔDBD PPARα; 0-60 min. The text has this:
Adenovirus encoding both FLAG®-tagged wild type mouse PPARα and a GFP marker, and an adenovirus encoding GFP alone were gifts from T. C. Leone and D. P. Kelly. The AdPPARα virus is known to result in expression of a protein that transactivates PPARα target genes (Bernal-Mizrachi et al., 2003; Tordjman et al., 2002). The DNA binding domain (DBD) mutant of PPARα was generated by mutating the two highly conserved cysteine residues (Shi et al., 2002) to alanine (C119A, C122A) using site-directed mutagenesis (QuikChange® kit, Stratagene). The DBD mutant was subcloned into the pCMV-TAG1 vector (Stratagene) to acquire a FLAG® tag, then shuttled into pAdTrack-CMV vector encoding a GFP marker and recombined with Ad-Easy1 vector. The pAdTrack-CMV and pAdEasy-1 vectors were gifts from the laboratory of B. Vogelstein. […]
To address the concern that lipid loss could represent Wy14,643-accelerated metabolism as opposed to displacement of the ligand, 1-palmitoyl-2-oleoyl-sn-glycerol-3-phosphocholine (16:0/18:1-GPC) from its binding site on PPARα, an in vivo competitive inhibition experiment using a PPARα molecule with a defective DNA binding domain (see FIG. 5A) was employed. […] Quantification of the relative abundance of the m/z 766 ion in response to Wy14,643 administration in WT mice on a PPARα null background injected with AdFLAG-^ΔDBD PPARα adenovirus is shown in FIG. 5M. […]

Take `Cc1cccc(Nc2cc(Cl)nc(SCC(=O)O)n2)c1C` [Wy14,643, 4-Chloro-6-(2,3-xylidino)-2-pyrimidinylthioacetic acid]: the “displacement of m/z 766 (16:0/18:1-GPC) from ΔDBD-PPARα” value is recorded as “competed away from ΔDBD-PPARα within minutes”.
